Assay results taken from patent publication US10822317B2, “Methods and compositions for wound healing” (QBiotics Limited, priority 2013, dated 2020).

Test system: human PBMCs
Assay: Gene expression (Illumina BeadChip) in human PBMCs
Type: cell-based
Settings: 30 ng/mL
Experimental: Human peripheral blood mononuclear cells (PBMCs) were isolated by Ficoll-Paque sedimentation of heparinised blood from a human donor, and cultured in RPMI-1640 10% FCS. Following treatment with Compound 1 at 30 ng/mL, the monolayer was washed once with phosphate buffered saline (PBS) and the cells harvested with sterile scrapers and stored as pellets at −80° C.
RNA was extracted from 30 mg of frozen tumour or 1×10^7 cells using the QiagenRNeasyPlus Mini Kit, according to manufacturer's instructions, then quantitated with a NanoDrop instrument and integrity confirmed on denaturing agarose gels bearing a 1 kb DNA marker and stained with ethidium bromide.
Approximately 500 ng of total unlabelled RNA was adjusted to a final volume of 11 μL with nuclease-free water. The RNA was incubated with 9 μL of the reverse transcriptase master mix (1 μL of T7 Oligo (dT) Primer, 2 μL of 10× first strand buffer, 4 μL of dNTP mix, 1 μL of RNase inhibitor and 1 μL of ArrayScript) at 42° C. for 2 hr. This was followed by the second strand cDNA synthesis step which involved a further incubation at 16° C. for 2 hr with 80 µL of the second strand master mix (63 μL nuclease-free water, 10 μL 10× second strand buffer, 4 μL dNTP mix, […] and 1 μL RNase H). The cDNA was purified by filtering through a cDNA Filter Cartridge with 250 μL of cDNA binding buffer and washing with 500 μL of the wash buffer provided in the kit. Purified cDNA was eluted with 20 μL of 55° C. nuclease-free water. Each cDNA sample was incubated with 7.5 μL of the IVT master mix (2.5 μL of T7 10× reaction buffer, 2.5 μL of T7 enzyme mix and 2.5 μL biotin-NTP mix) at 37° C. for 16 hr. The reaction was stopped with the addition of 75 μL of nuclease-free water to each cRNA sample. The biotinylated, amplified RNA was purified by filtering the cRNA samples through cRNA Filter Cartridges with 350 μL of cRNA binding buffer and 250 μL of 100% ethanol mixed together prior to loading onto the filters. The cRNA filter cartridges with attached RNA were then washed with 650 μL of wash buffer before eluting purified cRNA with 200 μL of 55° C. nuclease-free water.
The cRNA samples were heated at 65° C. for 5 min and collected by pulse centrifugation. After heating at 65 degrees for 5 min, approximately 750 ng of the cRNA sample was aliquoted into separate tubes to which were added ˜5 μL of RNase-free water and 10 μL of Hyb Mix. Approximately 15 μL of the prepared cRNA mix was loaded onto the Illumina Expression BeadChips. Subsequent steps of hybridisation and washing were carried out according to the Whole-Genome Gene Expression Direct Hybridization Assay Guide supplied by Illumina.
The Human HT-12 v4 Expression BeadChips cover more than 47,000 transcripts and known splice variants across the human transcriptome. The MouseRef-8 v2.0 Expression BeadChips cover approximately 25,600 well-annotated RefSeq (Reference Sequence) transcripts, comprising over 19,000 unique genes.
BeadChips were read by the iScan System, and transferred via GenomeStudio into GeneSpring GX v12.5 (Agilent Technologies, Santa Clara, Calif., USA). The expression values were normalized using quantile normalization with default settings. The entities were filtered based on the detection score calculated by GenomeStudio where p≤0.05 was considered significant.
Human peripheral blood mononuclear cells (PBMCs) are rich in lymphocytes and macrophage precursors (monocytes) involved in the production of cytokines and tissue remodelling enzymes relevant to the wound healing process. […] It should therefore be noted that the genes shown in Table 14 illustrate the range of relevant molecules regulated by Compound 1 in a mixed lymphoid population in vitro, without specifying the order of tissue-specific expression in vivo.

## CC=C(C)C(=O)OC1C(C)C2(O)C(C3OC3(CO)C(O)C3(O)C(=O)C(C)=CC32)C2C(C)(C)C12OC(=O)C(C)CC (centres unmarked) [Compound 1, 12-tigloyl-13-(2-methylbutanoyl)-6,7-epoxy-4,5,9,12,13,20-hexahydroxy-1-tigliaen-3-one]
4 h
  CCL3L1: Direction of regulation: Up
  CCL7: Direction of regulation: Up
  CXCL2: Direction of regulation: Up
  GM-CSF: Direction of regulation: Up
  HBEGF: Direction of regulation: Up
  KLF10: Direction of regulation: Up
  MMP1: Direction of regulation: Up
  MMP7: Direction of regulation: Up
  MMP10: Direction of regulation: Up
  MMP19: Direction of regulation: Up
  TGM3: Direction of regulation: Up
  THBS1: Direction of regulation: Down
4 h, Down
  THBS1: Fold change in expression: −47.8 fold
4 h, Up
  CCL3L1: Fold change in expression: 5.3 fold
  CCL7: Fold change in expression: 9.4 fold
  CXCL2: Fold change in expression: 3.5 fold
  GM-CSF: Fold change in expression: 4.3 fold
  HBEGF: Fold change in expression: 2.7 fold
  KLF10: Fold change in expression: 5.9 fold
  MMP1: Fold change in expression: 3.1 fold
  MMP7: Fold change in expression: 3.5 fold
  MMP10: Fold change in expression: 3.2 fold
  MMP19: Fold change in expression: 11.6 fold
  TGM3: Fold change in expression: 2.3 fold
24 h
  CCL1: Direction of regulation: Up
  CCL3: Direction of regulation: Up
  CCL3L1: Direction of regulation: Up
  CCL7: Direction of regulation: Up
  CSF1: Direction of regulation: Up
  CXCL1: Direction of regulation: Up
  CXCL2: Direction of regulation: Up
  CXCL5: Direction of regulation: Up
  CXCL7: Direction of regulation: Up
  CXCL13: Direction of regulation: Up
  GM-CSF: Direction of regulation: Up
  HBEGF: Direction of regulation: Up
  IL1α: Direction of regulation: Up
  IL1β: Direction of regulation: Up
  IL6: Direction of regulation: Up
  IL10: Direction of regulation: Up
  IL24: Direction of regulation: Up
  KLF10: Direction of regulation: Up
  MMP1: Direction of regulation: Up
  MMP7: Direction of regulation: Up
  MMP9: Direction of regulation: Down
  MMP10: Direction of regulation: Up
  MMP19: Direction of regulation: Up
  TGM2: Direction of regulation: Up
  TGM3: Direction of regulation: Up
  TGM5: Direction of regulation: Down
  THBS1: Direction of regulation: Down
  TIMP2: Direction of regulation: Down
24 h, Down
  MMP9: Fold change in expression: −22.9 fold
  TGM5: Fold change in expression: −3.3 fold
  THBS1: Fold change in expression: −101.5 fold
  TIMP2: Fold change in expression: −10.9 fold
24 h, Up
  CCL1: Fold change in expression: 39.8 fold
  CCL3: Fold change in expression: 56.9 fold
  CCL3L1: Fold change in expression: 72.3 fold
  CCL7: Fold change in expression: 54.5 fold
  CSF1: Fold change in expression: 5.1 fold
  CXCL1: Fold change in expression: 15.5 fold
  CXCL2: Fold change in expression: 73.5 fold
  CXCL5: Fold change in expression: 8.1 fold
  CXCL7: Fold change in expression: 17.5 fold
  CXCL13: Fold change in expression: 2.2 fold
  GM-CSF: Fold change in expression: 34.6 fold
  HBEGF: Fold change in expression: 5.1 fold
  IL1α: Fold change in expression: 14.6 fold
  IL1β: Fold change in expression: 15.4 fold
  IL6: Fold change in expression: 33.1 fold
  IL10: Fold change in expression: 2.1 fold
  IL24: Fold change in expression: 4.6 fold
  KLF10: Fold change in expression: 9.3 fold
  MMP1: Fold change in expression: 4.2 fold
  MMP7: Fold change in expression: 7.4 fold
  MMP10: Fold change in expression: 52 fold
  MMP19: Fold change in expression: 2.6 fold
  TGM2: Fold change in expression: 12.2 fold
  TGM3: Fold change in expression: 28.4 fold
96 h
  CCL1: Direction of regulation: Up
  CCL3L1: Direction of regulation: Up
  CCL7: Direction of regulation: Up
  CXCL5: Direction of regulation: Up
  CXCL7: Direction of regulation: Up
  CXCL13: Direction of regulation: Up
  GM-CSF: Direction of regulation: Up
  MMP7: Direction of regulation: Up
  TGM2: Direction of regulation: Up
96 h, Up
  CCL1: Fold change in expression: 42.6 fold
  CCL3L1: Fold change in expression: 4.2 fold
  CCL7: Fold change in expression: 4.8 fold
  CXCL5: Fold change in expression: 15.1 fold
  CXCL7: Fold change in expression: 37.4 fold
  CXCL13: Fold change in expression: 23.5 fold
  GM-CSF: Fold change in expression: 6 fold
  MMP7: Fold change in expression: 117.3 fold
  TGM2: Fold change in expression: 4.4 fold
